Key:
human EP4 = molecular target: T1, human EP4 (Homo sapiens, UniProt P35408); assay: cAMP Gs functional assay (HTRF cAMP dynamic-2); type: cell-based; conditions: for Emax: HEK293, HEK293 cells transfected with EP4 Bacmam virus; for EC50: 30 mins at 37° C., −Log of the molarity (M), read-out: cAMP human EP4 pEC50 (converted)
T1 construct: expressed in transfected cells; host or cells: HEK293 cells transduced with EP4 BacMam virus
Procedure: Cloning, Baculovirus generation, large scale infection of HEK293 cells and membrane preparation: Human prostaglandin E2 receptor 4 (EP4) was cloned into pBacMam expression vector (GeneScript, UK). Transposition of EP4 DNA was performed using Invitrogen's Bac-to-Bac Baculovirus Expression Systems. P0 baculovirus was generated by transfecting SF9 Cells with bacmid DNA using Cellfectin II transfection reagent (ThermoFisher Scientific, UK). Following P0 generation P1 virus was then generated ready for large scale infection and membrane preparation. HEK293 cells were grown in DMEM (ThermoFisher Scientific, UK), supplemented with 10% heat inactivated fetal bovine serum (FBS). Cells were infected at a seeding density of 3.5 million cells/mL in 500 cm^3 flasks at 5% v/v EP4 Bacman. Expression was carried out over a 36 hr period at 37° C. with 5% CO2. The cells were removed using PBS and a cell scrapper. The cell culture was centrifuged at 2500 RPM for 10 mins at 4° C. The supernatant was then poured off and the pellet stored at −80° C. The pellet was defrosted and re-suspended in 15 mL of homogenising buffer (20 mM HEPES, 10 mM EDTA, pH 7.4). Then homogenised in mechanical homogeniser (VMR) for 10 seconds. The membrane was centrifuged in centrifuge tubes at 40,000 g for 15 mins at 4° C. The supernatant was poured away and re-suspended in 15 mL of homogenising buffer. Homogenised for 20 seconds. The membrane was centrifuged at 40,000 g for 45 mins at 4° C. The membrane was re-suspended in 3 mL of storage buffer (20 mM HEPES, 0.1 mM EDTA, pH 7.4) mixing well. The resulting membranes were then stored at −80° C.
cAMP Gs Functional Assay: cAMP production following EP4 receptor activation was determined using the Homogeneous Time-Resolved Fluorescence (HTRF) cAMP dynamic-2 assay (Cisbio, France). HEK293 cells were transfected using a 0.5% EP4 Bacmam virus for 36 hours, before dissociating the cells, and freezing at −150° C.
On the day of testing, increasing concentration of test compounds, alongside positive controls (10 uM PGE2 (Tocris, Abingdon, UK)) and negative control (DMSO (Sigma-Aldrich, UK) were added to a ProxiPlate-384 Plus, White 384-shallow well Mircoplate, (PerkinElmer, USA) using the ECHO dispense.
Cells were defrosted in a water bath and resuspended in DMEM supplemented with 10% FBS before centrifuging at 1200 RPM for 5 mins to form a pellet. The pellet was resuspended in assay buffer (DMEM+0.5 mM IBMX (Tocris, Abingdon, UK)) to 0.5×10^6 cells/mL. Cell suspension, for a final assay concentration of 5000 cell/well was added using the multidrop to the pre-dispensed assay plate. The plate was then incubated at 37° C. for 30 mins, with 5% CO2. The cAMP production was determined as manufacturer's instructions, before plates were read on a PheraStar fluorescence plate reader (BMG LabTech, Germany).
The pEC50 values (−Log of the molarity (M) in mol/liter) were calculated from the mid-point of the curve using dotmatics as shown in Table 3.

[1] = Unidirectional Caco-2 cell permeability assay; type: in vitro ADME; conditions: human, n=2, apical pH 6.5, basolateral pH 7.4, 1 hour, 37° C.
Procedure: Caco-2 cells (ECACC) were seeded onto 24-well Transwell plates at 2×10^5 cells per well and used in confluent monolayers after a 21 day culture at 37° C. under 5% CO2. Test compounds were incubated at 10 μM, 0.2% DMSO final, n=2 in assay buffer (Hanks balanced salt solution supplemented with 25 mM HEPES, adjusted to pH 6.5). Hanks balanced salt solution supplemented with 25 mM HEPES, adjusted to pH 7.4 (0.2% DMSO final) was used for the basolateral chamber (as receiver).
Incubations were performed at 37° C., with samples removed from both donor and acceptor chambers at T=0 and 1 hour and compound analysed by mass spectrometry (LC-MS/MS) including an analytical internal standard (0.5 μM carbamazepine).
Apparent permeability (Papp) values are shown in Table 4 and were determined from the relationship:
Where V is the volume of each Transwell compartment (apical 125 μL, basolateral 600 μL), and concentrations are the relative MS responses for compound (normalized to internal standard) in the donor chamber before incubation and acceptor chamber at the end of the incubation Area=area of cells exposed for drug transfer (0.33 cm^2).
Lucifer Yellow (LY) was added to the apical buffer in all wells to assess viability of the cell layer. As LY cannot freely permeate lipophilic barriers, a high degree of LY transport indicates poor integrity of the cell layer and wells with a LY Papp>10×10^−6 cm/s were rejected.
Compound recovery from the wells was determined from MS responses (normalized to internal standard) in donor and acceptor chambers at the end of incubation compared to response in the donor chamber pre-incubation.

[2] = HEK293 cells transfected with EP4 Bacmam virus

T1 sequence (P35408 whole entry): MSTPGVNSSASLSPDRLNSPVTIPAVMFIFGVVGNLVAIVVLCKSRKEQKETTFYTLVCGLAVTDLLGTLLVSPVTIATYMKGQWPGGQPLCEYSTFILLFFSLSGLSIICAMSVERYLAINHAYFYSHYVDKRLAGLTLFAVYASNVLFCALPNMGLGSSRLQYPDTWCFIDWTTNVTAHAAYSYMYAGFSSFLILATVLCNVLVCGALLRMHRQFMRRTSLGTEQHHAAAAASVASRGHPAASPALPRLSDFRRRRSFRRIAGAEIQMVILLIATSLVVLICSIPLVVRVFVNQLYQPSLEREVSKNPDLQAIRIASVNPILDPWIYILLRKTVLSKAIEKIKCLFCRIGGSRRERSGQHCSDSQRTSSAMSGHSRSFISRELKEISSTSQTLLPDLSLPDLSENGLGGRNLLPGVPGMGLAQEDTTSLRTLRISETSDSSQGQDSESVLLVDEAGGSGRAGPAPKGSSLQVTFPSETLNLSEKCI

| Emax (human EP4; positive control 10 uM PGE2) [%] | EC50 (human EP4; [2]) [M] | cAMP human EP4 Emax (human EP4; HEK293 cells transfected with EP4 Bacmam virus, positive control 10 uM PGE2) [%] | Papp A→B at 1 h, 10 μM [1] [×10⁻⁶ cm/s] | Structure (SMILES) |
| --- | --- | --- | --- | --- |
| 97 |  |  |  | Cc1cc(C(N)=O)ccc1-c1cccc(CN2CCOC[C@@H]2C(=O)NC(C)c2cc(F)c(C(=O)O)c(F)c2)c1 (single isomer, unassigned) [Example 26] |
|  | 2.51e-07 | 95 |  | Cc1cc(C(N)=O)ccc1-c1cccc(CN2CCOC[C@@H]2C(=O)NC(C)c2cc(F)c(C(=O)O)c(F)c2)c1 (single isomer, unassigned) [Example 27] |
| 95 | 7.94e-08 |  | 0.15 | C[C@H](NC(=O)[C@H]1COCCN1Cc1cccc(-c2ccc(C(N)=O)cc2O)c1)c1ccc(C(=O)O)cc1 [Example 14, 4-((S)-1-((R)-4-((4′-carbamoyl-2′-hydroxy-[1,1′-biphenyl]-3-yl)methyl)morpholine-3-carboxamido)ethyl)benzoic acid] |
| 101 | 5.01e-10 |  |  | Cc1cc(OS(N)(=O)=O)ccc1-c1cccc(CN2CCOC[C@@H]2C(=O)N[C@@H](C)c2ccc(C(=O)O)cc2)c1 [Example 20, 4-((S)-1-((R)-4-((2′-methyl-4′-(sulfamoyloxy)-[1,1′-biphenyl]-3-yl)methyl)morpholine-3-carboxamido)ethyl)benzoic acid] |
| 97 |  |  |  | C[C@H](NC(=O)[C@H]1COCCN1Cc1cccc(-c2ccc(S(N)(=O)=O)cc2O)c1)c1ccc(C(=O)O)cc1 [Example 29, 4-((S)-1-((R)-4-((2′-hydroxy-4′-sulfamoyl-[1,1′-biphenyl]-3-yl)methyl)morpholine-3-carboxamido)ethyl)benzoic acid] |
| 93 | 1.58e-07 |  |  | Cc1cc(C(N)=O)ccc1-c1cc(CN2CCOC[C@@H]2C(=O)N[C@@H](C)c2ccc(C(=O)O)cc2)c[n+]([O-])c1 [Example 30, 3-(4-carbamoyl-2-methylphenyl)-5-(((R)-3-(((S)-1-(4-carboxyphenyl)ethyl)carbamoyl)morpholino)methyl)pyridine 1-oxide] |

Continued, compound first:

| Structure (SMILES) | Emax (human EP4; positive control 10 uM PGE2) [%] | EC50 (human EP4; [2]) [M] | cAMP human EP4 Emax (human EP4; HEK293 cells transfected with EP4 Bacmam virus, positive control 10 uM PGE2) [%] | Papp A→B at 1 h, 10 μM [1] [×10⁻⁶ cm/s] |
| --- | --- | --- | --- | --- |
| Cc1cc(C(N)=O)ccc1-c1cncc(CN2CCOC[C@@H]2C(=O)N[C@@H](C)c2ccc(C(=O)O)cc2)c1 [Example 1, 4-((S)-1-((R)-4-((5-(4-carbamoyl-2-methylphenyl)pyridin-3-yl)methyl)morpholine-3-carboxamido)ethyl)benzoic acid] | 96 | 1e-08 |  | 0.24 |
| Cc1cc(C(N)=O)ccc1-c1cccc(CN2CCOC[C@@H]2C(=O)N[C@@H](C)c2ccc(C(=O)O)cc2)n1 [Example 2, 4-[(1S)-1-[[(3R)-4-[[6-(4-carbamoyl-2-methyl-phenyl)-2-pyridyl]methyl]-morpholine-3-carbonyl]amino]ethyl]benzoic acid] | 89 | 1e-06 |  |  |
| Cc1cc(C(N)=O)ccc1-c1cc(CN2CCOC[C@@H]2C(=O)N[C@@H](C)c2ccc(C(=O)O)cc2)ccn1 [Example 3, 4-[(1S)-1-[[(3R)-4-[[2-(4-carbamoyl-2-methyl-phenyl)-4-pyridyl]methyl]morpholine-3-carbonyl]amino]ethyl]benzoic acid] | 96 | 6.31e-08 |  | 0.57 |
| Cc1cc(C(N)=O)ccc1-c1ccnc(CN2CCOC[C@@H]2C(=O)N[C@@H](C)c2ccc(C(=O)O)cc2)c1 [Example 4, 4-[(1S)-1-[[(3R)-4-[[4-(4-carbamoyl-2-methyl-phenyl)-2-pyridyl]methyl]morpholine-3-carbonyl]amino]ethyl]benzoic acid] | 95 | 6.31e-08 |  | 0.5 |
| Cc1cc(S(N)(=O)=O)ccc1-c1cccc(CN2CCOC[C@@H]2C(=O)N[C@@H](C)c2ccc(C(=O)O)cc2)c1 [Example 5, 4-((S)-1-((R)-4-((2′-methyl-4′-sulfamoyl-[1,1′-biphenyl]-3-yl)methyl)morpholine-3-carboxamido)ethyl)benzoic acid] | 100 | 7.94e-10 |  | 0.59 |
| Cc1cc(C(N)=O)ccc1-c1cccc(CN2CCOC[C@@H]2C(=O)N[C@@H](C)c2ccc(C(=O)O)cc2)c1 [Example 7, 4-((S)-1-((R)-4-((4′-carbamoyl-2′-methyl-[1,1′-biphenyl]-3-yl)methyl)morpholine-3-carboxamido)ethyl)benzoic acid] | 99 | 1.58e-09 |  | 0.66 |
| Cc1cc(C(N)=O)ccc1-c1cccc(CN2CCOC[C@@H]2C(=O)NCc2cc(F)c(C(=O)O)c(F)c2)c1 [Example 8, 4-[[[(3R)-4-[[3-(4-carbamoyl-2-methyl-phenyl)phenyl]methyl]morpholine-3-carbonyl]amino]methyl]-2,6-difluoro-benzoic acid] | 96 | 1.58e-07 |  | < 0.1 |
| Cc1cc(C(N)=O)ccc1-c1cccc(CN2CCOC[C@@H]2C(=O)NCc2ccc(C(=O)O)nc2)c1 [Example 9, 5-[[[(3R)-4-[[3-(4-carbamoyl-2-methyl-phenyl)phenyl]methyl]morpholine-3-carbonyl]amino]methyl]pyridine-2-carboxylic acid] | 97 | 3.98e-08 |  | 0.24 |
| Cc1cc(C(N)=O)ccc1-c1cc(O)cc(CN2CCOC[C@@H]2C(=O)N[C@@H](C)c2ccc(C(=O)O)cc2)c1 [Example 10, 4-((S)-1-((R)-4-((4′-carbamoyl-5-hydroxy-2′-methyl-[1,1′-biphenyl]-3-yl)methyl)morpholine-3-carboxamido)ethyl)benzoic acid] | 98 | 2e-10 |  | < 0.1 |
| Cc1cc(S(N)(=O)=O)ccc1-c1cc(O)cc(CN2CCOC[C@@H]2C(=O)N[C@@H](C)c2ccc(C(=O)O)cc2)c1 [Example 11, 4-[(1S)-1-[[(3R)-4-[[3-hydroxy-5-(2-methyl-4-sulfamoyl-phenyl)phenyl]methyl]morpholine-3-carbonyl]amino]ethyl]benzoic acid] | 98 | 3.98e-10 |  | < 0.1 |
| Cc1cc(S(N)(=O)=O)ccc1-c1cncc(CN2CCOC[C@@H]2C(=O)N[C@@H](C)c2ccc(C(=O)O)cc2)c1 [Example 12, 4-[(1S)-1-[[(3R)-4-[[5-(2-methyl-4-sulfamoyl-phenyl)-3-pyridyl]methyl]morpholine-3-carbonyl]amino]ethyl]benzoic acid] | 99 | 1.58e-08 |  | 0.12 |
| Cc1cc(C(N)=O)ccc1-c1cccc(CN2CCOC[C@@H]2C(=O)NCc2ccc(C(=O)O)c(F)c2)c1 [Example 13, 4-[[[(3R)-4-[[3-(4-carbamoyl-2-methyl-phenyl)phenyl]methyl]morpholine-3-carbonyl]amino]methyl]-2-fluoro-benzoic acid] | 96 | 1.26e-08 |  | 0.32 |
